The values below come from patent US8378100B2, “Phosphonate derivatives as autotaxin inhibitors” (University of Virginia Patent Foundation, priority 2008, dated 2013).

The target in the assay is recombinant human ATX (Homo sapiens, UniProt Q13822). In words: Choline detection assay for ATX. Format: biochemical. The note with it: activity without test compound = 100%; for ATX activity (%) 1 μM: 1 μM test compound; for ATX activity (%) 10 μM: 10 μM test compound; for ATX activity (%) 100 μM: 100 μM test compound; for ATX activity (%) 10 Mm: 10 μM test compound as printed. Here is the method:
The phosphonate derivatives were tested in choline detection assay for ATX inhibition. The ATX activity assay was conducted in 0.1 ml, buffer: (in mM: Tris-HCl 100, pH9, NaCl 150, MgCl2 5, CoSO4 0.03, 0.05% Triton X-100), 1 mM 18:1 LPC, using recombinant human ATX with or without test compounds; incubation was for 16 hours at 37° C. The released choline was detected as follows: Samples were mixed with 0.15 ml of 50 mM TrisHCl containing 2.7 mM TOOS(N-ethyl-N-2-hydroxy-3-sulfopropyl)-m-toluidine, 2.7 mM 4-AAP (4-aminoantipyrine), 47.7 U/ml horseradish peroxidase, 18 U/ml choline oxidase, and 5 mM MgCl2. After 30 min incubation at 37° C., light absorbance (550 nm) was determined, and the amount of choline release was calculated from a standard curve.
The ATX activity was measured in the presence of the test compounds under different concentrations (100 μM, 10 μM and 1 μM). The ATX activity without TEST compounds was used as the standard (100% activity). Some β-hydroxy phosphonate derivatives inhibited ATX activity at only the highest concentration tested. […] These two compounds were synthesized from protected L-tyrosine and they are diastereomers. The less polar isomer, f17, (also known as VPC8a202) was able to inhibit 73% of ATX activity at 1 μM.

The mark [1] stands for this setting: table of g1-g15 (β-keto phosphonates).

Take `CCCCCCCCCCCCCCCCCC(=O)N[C@@H](Cc1ccc(OCc2ncc(C)c(OC)c2C)cc1)C(O)CP(=O)(O)O` (single isomer, unassigned) [f39]: the “ATX activity (%) 1 μM” value (Table 2 (f35-f44)) was 101%. The “ATX activity (%) 10 μM” value (Table 2 (f35-f44), 10 µM) came out at 91%. Moreover, the “ATX activity (%) 100 μM” value (Table 2 (f35-f44), 100 µM) is listed as 81%.

Consider `CCCCCCCCCCCCCCCC(=O)N[C@@H](Cc1ccc(OCCCCC)cc1)C(=O)CP(=O)(O)O` [g13], for which, under setting [1], the “ATX activity (%) 1 μM” value is listed as 95% and the “ATX activity (%) 10 μM” value stood at 83%.

In the case of `CCCCCCCCCCCCCCCC(=O)N[C@@H](Cc1ccc(OCCC)cc1)C(O)CP(=O)(O)O` (single isomer, unassigned) [f25], where the note is “Table 1 (f1-f34), 1 µM”, the “ATX activity (%) 1 μM” value is given as 110%. For the same compound, the “ATX activity (%) 10 Mm” value (Table 1 (f1-f34)) was found to be 97%. Further, the “ATX activity (%) 100 μM” value (Table 1 (f1-f34), 100 µM) is given as 77%.

On to `CCCCCCCCCCCCCCCC(=O)N[C@H](Cc1ccc(OC)cc1)C(O)CP(=O)(O)O` (single isomer, unassigned) [f19], for which the “ATX activity (%) 1 μM” value (Table 1 (f1-f34), 1 µM) came to 100%. Under “Table 1 (f1-f34)”, the “ATX activity (%) 10 Mm” value came to 78%. Besides, the “ATX activity (%) 100 μM” value (Table 1 (f1-f34), 100 µM) stood at 57%.

As to `CCCCCCCCCCCCCC(=O)N[C@H](Cc1ccc(OCc2ncc(C)c(OC)c2C)cc1)C(O)CP(=O)(O)O` (single isomer, unassigned) [f38], where the note is “Table 2 (f35-f44), 100 µM”, the “ATX activity (%) 100 μM” value is recorded as 35%.

With `CCCCCCCCCCCCCCCC(=O)N[C@@H](Cc1ccc(OCc2ccccc2)cc1)C(=O)CP(=O)(O)O` [g4], under setting [1], the “ATX activity (%) 10 μM” value worked out at 71% and the “ATX activity (%) 100 μM” value was determined as 61%.

On to `CCCCCCCCCCCCCCCC(=O)N[C@@H](Cc1ccc(OC)cc1)C(=O)CP(=O)(O)O` [g9], for which, under setting [1], the “ATX activity (%) 1 μM” value amounted to 96%, the “ATX activity (%) 10 μM” value was 68% and the “ATX activity (%) 100 μM” value worked out at 45%.

Regarding `CCCCCCCCCCCCCCCC(=O)N[C@@H](Cc1ccc(OCc2ccccc2)cc1)C(O)CP(=O)(O)O` (single isomer, unassigned) [f7], the “ATX activity (%) 1 μM” value (Table 1 (f1-f34), 1 µM) is given as 97%. For the same compound, the “ATX activity (%) 10 Mm” value (Table 1 (f1-f34)) was 77%. In addition, the “ATX activity (%) 100 μM” value (Table 1 (f1-f34), 100 µM) is listed as 68%.

With `CCCCCCCCCCCCCCCC(=O)N[C@H](Cc1ccc(OCCCCC)cc1)C(=O)CP(=O)(O)O` [g12], under setting [1], the “ATX activity (%) 1 μM” value worked out at 93% and the “ATX activity (%) 10 μM” value amounted to 84%.

In the case of `CCCCCCCCCCCCCCCC(=O)N[C@H](Cc1ccc(OCCC)cc1)C(O)CP(=O)(O)O` (single isomer, unassigned) [f24], for the setting “Table 1 (f1-f34), 1 µM”, the “ATX activity (%) 1 μM” value is listed as 108%. Also, for the setting “Table 1 (f1-f34)”, the “ATX activity (%) 10 Mm” value worked out at 108%. Where the note is “Table 1 (f1-f34), 100 µM”, the “ATX activity (%) 100 μM” value was found to be 90%.

Take `CCCCCCCCCCCCCCCC(=O)N[C@H](Cc1ccc(OCc2ccccc2)cc1)C(O)CP(=O)(O)O` (single isomer, unassigned) [f5]: under “Table 1 (f1-f34), 1 µM”, the “ATX activity (%) 1 μM” value was 83%. In addition, for the setting “Table 1 (f1-f34)”, the “ATX activity (%) 10 Mm” value is on record as 82%. In addition, the “ATX activity (%) 100 μM” value (Table 1 (f1-f34), 100 µM) amounted to 83%.

Consider `CCCCCCCCCCCCCCCC(=O)N[C@@H](Cc1ccc(OCCCCC)cc1)C(O)CP(=O)(O)O` (single isomer, unassigned) [f29], for which the “ATX activity (%) 1 μM” value (Table 1 (f1-f34), 1 µM) stood at 98%. Further, the “ATX activity (%) 10 Mm” value (Table 1 (f1-f34)) amounted to 83%. Moreover, the “ATX activity (%) 100 μM” value (Table 1 (f1-f34), 100 µM) amounted to 67%.

As to `CCCCCCCCCCCCCCCC(=O)N[C@@H](Cc1ccc(OCCC)cc1)C(O)CP(=O)(O)O` (single isomer, unassigned) [f26], for the setting “Table 1 (f1-f34), 1 µM”, the “ATX activity (%) 1 μM” value was found to be 100%. For the same compound, the “ATX activity (%) 10 Mm” value (Table 1 (f1-f34)) stood at 100%. Besides, the “ATX activity (%) 100 μM” value (Table 1 (f1-f34), 100 µM) was 83%.

For the compound `CCCCCCCCCCCCCCCC(=O)N[C@@H](Cc1ccc(OC)cc1)C(O)CP(=O)(O)O` (single isomer, unassigned) [f21], the “ATX activity (%) 1 μM” value (Table 1 (f1-f34), 1 µM) stood at 77%. The “ATX activity (%) 10 Mm” value (Table 1 (f1-f34)) amounted to 56%. For the same compound, the “ATX activity (%) 100 μM” value (Table 1 (f1-f34), 100 µM) was 36%.

Turning to `CCCCCCCCCCCCCCCC(=O)N[C@@H](Cc1ccc(OC)cc1)C(O)CP(=O)(O)O` (single isomer, unassigned) [f22], the “ATX activity (%) 1 μM” value (Table 1 (f1-f34), 1 µM) worked out at 84%. The “ATX activity (%) 10 Mm” value (Table 1 (f1-f34)) amounted to 80%. Under “Table 1 (f1-f34), 100 µM”, the “ATX activity (%) 100 μM” value was found to be 69%.

With `CCCCCCCCCCCCCCCC(=O)N[C@@H](Cc1ccc(OCCC)cc1)C(=O)CP(=O)(O)O` [g11], under setting [1], the “ATX activity (%) 10 μM” value is on record as 97% and the “ATX activity (%) 100 μM” value is 72%.

As to `CCCCCCCCCCCCCCCC(=O)N[C@@H](Cc1ccc(OCCCCC)cc1)C(O)CP(=O)(O)O` (single isomer, unassigned) [f30], where the note is “Table 1 (f1-f34), 1 µM”, the “ATX activity (%) 1 μM” value is 94%. Besides, where the note is “Table 1 (f1-f34)”, the “ATX activity (%) 10 Mm” value is given as 90%. Besides, the “ATX activity (%) 100 μM” value (Table 1 (f1-f34), 100 µM) came to 70%.

With `CCCCCCCCCCCCCCCCCC(=O)N[C@@H](Cc1ccc(OCc2ncc(C)c(OC)c2C)cc1)C(O)CP(=O)(O)O` (single isomer, unassigned) [f40], the “ATX activity (%) 10 μM” value (Table 2 (f35-f44), 10 µM) is 90%. In addition, the “ATX activity (%) 100 μM” value (Table 2 (f35-f44), 100 µM) was 62%.

For the compound `CCCCCCCCCCCCCCCC(=O)N[C@H](Cc1ccc(OCC2CCCCC2)cc1)C(O)CP(=O)(O)O` (single isomer, unassigned) [f13], where the note is “Table 1 (f1-f34)”, the “ATX activity (%) 1 μM” value was 84%, the “ATX activity (%) 10 Mm” value is given as 80% and the “ATX activity (%) 100 μM” value was found to be 67%.

On to `CCCCCCCCCCCCCCCC(=O)N[C@H](Cc1ccc(OCc2ccccc2)cc1)C(O)CP(=O)(O)O` (single isomer, unassigned) [f6], for which, for the setting “Table 1 (f1-f34), 1 µM”, the “ATX activity (%) 1 μM” value is on record as 80%. In addition, the “ATX activity (%) 10 Mm” value (Table 1 (f1-f34)) was determined as 81%. Also, the “ATX activity (%) 100 μM” value (Table 1 (f1-f34), 100 µM) worked out at 83%.

For the compound `CCCCCCCCCCCCCC(=O)N[C@H](Cc1ccc(OCc2ncc(C)c(OC)c2C)cc1)C(O)CP(=O)(O)O` (single isomer, unassigned) [f37], the “ATX activity (%) 10 μM” value (Table 2 (f35-f44)) turned out to be 99%. For the same compound, for the setting “Table 2 (f35-f44), 100 µM”, the “ATX activity (%) 100 μM” value was 67%.

For `CCCCCCCCCCCCCCCC(=O)N[C@H](Cc1ccc(OCCCCC)cc1)C(O)CP(=O)(O)O` (single isomer, unassigned) [f28], the “ATX activity (%) 1 μM” value (Table 1 (f1-f34), 1 µM) is 86%. In addition, the “ATX activity (%) 10 Mm” value (Table 1 (f1-f34)) turned out to be 82%. Further, under “Table 1 (f1-f34), 100 µM”, the “ATX activity (%) 100 μM” value came out at 70%.

`CCCCCCCCCCCCCCCC(=O)N[C@H](Cc1ccc(OCc2ccccc2)cc1)C(O)CP(=O)(O)O` (single isomer, unassigned) [f9]: the “ATX activity (%) 1 μM” value (Table 1 (f1-f34), 1 µM) came to 103%. Further, the “ATX activity (%) 10 Mm” value (Table 1 (f1-f34)) was 76%. The “ATX activity (%) 100 μM” value (Table 1 (f1-f34), 100 µM) was found to be 60%.

Consider `CCCCCCCCCC(=O)N[C@H](Cc1ccc(OCc2ncc(C)c(OC)c2C)cc1)C(O)CP(=O)(O)O` (single isomer, unassigned) [f35], for which, under “Table 2 (f35-f44)”, the “ATX activity (%) 10 μM” value is 86% and the “ATX activity (%) 100 μM” value was 30%.

For the compound `CCCCCCCCCCCCCCCC(=O)N[C@@H](Cc1ccc(OCC2CCCCC2)cc1)C(O)CP(=O)(O)O` (single isomer, unassigned) [f14], under “Table 1 (f1-f34)”, the “ATX activity (%) 1 μM” value was 80%, the “ATX activity (%) 10 Mm” value was 80% and the “ATX activity (%) 100 μM” value worked out at 80%.
